# Columns and labels:
# [1] = system: Escherichia coli ATCC 25922; assay: Antibacterial MIC/MBC (broth microdilution); assay type: cell-based; conditions: Escherichia coli ATCC 25922
# Excerpt: (§1) Twelve reference bacterial strains and nine MDR clinically relevant bacterial strains were used in this study. Gram-negative bacteria comprised reference strains E. coli ATCC 25922, K. pneumoniae ATCC 13883, Salmonella enterica serovar Typhimurium CECT 443, P. aeruginosa ATCC 27853, A. baumannii ATCC 19606, C. jejuni ATCC 33560 (ATCC—American Type Culture Collection; CECT—Colección Espanola de Cultivos Tipo); clinical isolates E. coli SA/2, an extended-spectrum β-lactamase (ESBL)-producing strain and P. aeruginosa 33b, a pan-drug-resistant isolate; and animal isolates C. jejuni P5/4, a ciprofloxacin-resistant strain, C. jejuni 4432, C. jejuni 4433, C. jejuni 4448, and E. coli 2252, a COL-resistant strain [42]. Gram-positive strains included S. aureus ATCC 29213, E. faecalis ATCC 29212, S. pyogenes ATCC 19615, and environmental isolates methicillin-resistant S. aureus (MRSA) 66/1 [43], and VAN-resistant enterococci (VRE) E. faecalis B3/101 [44]. Gram-negative fish pathogens Yersinia ruckeri ATCC 29473, Listonella anguillarum ATCC 1924, and Tenacibaculum maritimum ATCC 43397 were also included.
# (§2) Strains were kept in Trypto-Casein Soy agar (TSA—Biokar Diagnostics, Allone, Beauvais, France) slants and, before each assay, were sub-cultured in Mueller-Hinton agar (MHA—Biokar Diagnostics, Allone, Beauvais, France). Y. ruckeri ATCC 29473 and L. anguillarum ATCC 1924 were kept in Nutrient Agar (Condalab, Madrid, Spain) and T. maritimum ATCC 43397 was kept in TMM agar (Condalab, Madrid, Spain), and were sub-cultured in the respective culture media before each assay. For S. pyogenes ATCC 19615, CAMHB was supplemented with 3.75% lysed horse blood (LBH—Oxoid, Basingstoke, England), whereas for C. jejuni it was supplemented with 2.5% LHB. Colony-forming unit counts of the inoculum were conducted to determine the initial inoculum size (which should be approximately 5×10^5 CFU/mL). Sterility and growth controls were included in each assay. The 96-well U-shaped untreated polystyrene microtiter plates were incubated for 20 h at 37 degrees C. (42 degrees C. for C. jejuni, in a microaerophilic atmosphere) and the minimal inhibitory concentration (MIC) was determined as the lowest concentration of compound that prevented visible growth. The minimal bactericidal concentration (MBC) was determined by spreading 100 μL of the content of the wells with no visible growth on MH plates. The MBC was determined as the lowest concentration of compound that killed 99.9% of the initial inoculum after overnight incubation at 37 degrees C. Two independent assays were performed for reference and MDR strains.
# (§3) An initial screening of the antibacterial activity of the compounds was performed by the Kirby-Bauer disk diffusion method, as recommended by the Clinical and Laboratory Standards Institute (CLSI). Briefly, sterile 6 mm blank paper disks (Oxoid, Basingstoke, England) impregnated with 15 μg of each compound were placed on inoculated MH agar plates. A blank disk with dimethylsulfoxide (DMSO) was used as a negative control. MH inoculated plates were incubated for 18-20 h at 37 degrees C. At the end of incubation, the inhibition halos where measured. The MIC was used to determine the antibacterial activity of each compound, in accordance with the recommendations of the CLSI. Two-fold serial dilutions of the compounds were prepared in Mueller-Hinton Broth 2 (MHB2—Sigma-Aldrich, St. Louis, MO, USA) within the concentration range of 0.062-64 μg/mL. CTX ranging between 0.031-16 μg/mL was used as a control. Sterility and growth controls were included in each assay. Purity checks and colony counts of the inoculum suspensions were also performed in order to ensure that the final inoculum density closely approximates the intended number (5×10^5 CFU/mL). The MIC was determined as the lowest concentration of compound that inhibited growth of the bacteria. The MBC was assessed by spreading 10 μL of culture collected from wells showing no visible growth on MH agar plates. […]
# E. coli ATCC 25922 [2] = assay: Membrane integrity, propidium iodide influx assay (SYTO 9/PI); assay type: cell-based, Escherichia coli; conditions: 0, 1, 18 h
# Description: The influx of PI in E. coli ATCC 25922 treated with 2×MIC, MIC, and ½×MIC of compound 1 was evaluated using a commercial kit that includes fluorescent nucleic acid stains SYTO® 9 and PI. SYTO® 9 can enter cells with intact or damaged membranes, generally labeling both, whereas PI only penetrates cells with severe membrane lesions, causing a reduction in SYTO® 9 fluorescence when both dyes are present.
# In these assays, COL and AMP were used as controls. COL is a polycationic antimicrobial peptide with a complex mode of action, that ultimately solubilizes the bacterial cell membrane. AMP is an aminopenicillin that inhibits cell wall synthesis by inhibiting penicillin-binding proteins. E. coli ATCC 25922 cells were treated with compound 1 and, at several time-points (0, 1, and 18 h), samples were taken, and SYTO® 9/PI ratio was determined ([FIG. 4]). The entrance of PI is reflected in a reduction of this ratio.
# Briefly, E. coli ATCC 25922 colonies from overnight cultures in MHA were suspended in CAMHB to prepare an inoculum with a final concentration of approximately 5×10^5 CFU/mL. The tubes were incubated overnight at 36° C. in a water bath with shaking. Following this, the cell suspensions were centrifuged at 3500 rpm for 15 min, the supernatant was removed, the cells were carefully resuspended in fresh CAMHB and the suspension was adjusted to 0.5 McFarland. An aliquot of this suspension was then added to each tube of CAMHB alone (control) or CAMHB plus an appropriate amount of test compound. […] The tubes were incubated at 36 degrees C. in a water bath with shaking and, at pre-established time points (0, 1, and 18 h), […] aliquots were retrieved for further analysis. After the exposure time, cells were washed two times, resuspended in 0.85% NaCl, and 100 μL of each cell suspension was distributed in the wells of a microtiter plate, in triplicate. 100 μL of a mixture of 30 μM PI and 5 μM SYTO® 9 prepared in ultrapure water were added to each well, and the plates were incubated at room temperature, in the dark, for 15 min. The fluorescence intensity of the stained bacterial suspensions was determined using a microplate reader (Synergy HT, BioTek Instruments, Winooski, VT, USA) by two consecutive measurements with excitation wavelength 485 nm and emission wavelength 528 nm (SYTO® 9) or 590 nm (PI). Data were analyzed by subtracting background fluorescence from each sample, dividing the fluorescence intensity of SYTO® 9 by fluorescence intensity of PI, and the results are presented as a percentage of control. Three independent assays were performed in triplicate for each experimental condition.
# E. coli ATCC 25922 [3] = assay: Enzymatic/metabolic activity, MTT assay; assay type: cell-based, Escherichia coli; conditions: 0, 1, 18 h
# Description: To determine whether compound 1 could also affect enzymatic activity, 2-(4,5-dimethyl-2-thiazolyl)-3,5-diphenyl-2H-tetrazolium bromide (MTT) assay was performed. This assay can also be used as an indirect measure of cellular viability, as tetrazolium salts are reduced to purple formazan by metabolically active cells. E. coli ATCC 25922 cells were treated with compound 1 and COL and AMP were used as controls, as described above. Measurements were made at 0, 1, and 18 h.
# Enzymatic activity was evaluated by the MTT assay, as previously described, with some modifications. Cell suspensions of E. coli ATCC 25922 were prepared as described above, as well as test conditions and controls. At each time point (0, 1, and 18 h), 500 μL aliquots were collected, centrifuged at 3500 rpm for 10 min, the supernatant was removed, and 300 μL of MTT solution (0.5 mg/mL in CAMHB, at 36 degrees C.) (Thiazolyl Blue Tetrazolium Bromide, Alfa Aesar, Ward Hill, MA, USA) were added. After a 30 min incubation at 36° C., the insoluble formazan product resulting from the conversion of MTT by metabolically active cells was solubilized with 300 μL of DMSO. 100 μL of each sample were transferred in duplicate to the wells of a microtiter plate and the extent of the reduction of MTT to formazan was quantified by measuring the absorbance at 570 nm (Thermo Scientific Multiskan® EX, Thermo Fisher Scientific, Waltham, MA, USA). Three independent assays were performed in duplicate, and results are expressed as a percentage of untreated control.
# P. aeruginosa 33b (PDR) = assay: Antibacterial MIC/MBC (broth microdilution); assay type: cell-based, Pseudomonas aeruginosa; conditions: P. aeruginosa 33b (PDR)
# Excerpt: as §1, §2, §3
# C. jejuni 4433 = assay: Antibacterial MIC/MBC (broth microdilution); assay type: cell-based, Campylobacter jejuni
# Excerpt: as §1, §2, §3
# C. jejuni P5/4 = assay: Antibacterial MIC/MBC (broth microdilution); assay type: cell-based, Campylobacter jejuni
# Excerpt: as §1, §2, §3
# C. jejuni 4432 = assay: Antibacterial MIC/MBC (broth microdilution); assay type: cell-based, Campylobacter jejuni
# Excerpt: as §1, §2, §3
# C. jejuni 4448 = assay: Antibacterial MIC/MBC (broth microdilution); assay type: cell-based, Campylobacter jejuni
# Excerpt: as §1, §2, §3
# S. aureus 66/1 (MRSA) = assay: Antibacterial MIC/MBC (broth microdilution); assay type: cell-based, Staphylococcus aureus
# Excerpt: as §1, §2, §3
# [4] = system: Streptococcuss pyogenes ATCC 19615; assay: Antibacterial MIC/MBC (broth microdilution); assay type: cell-based, Streptococcus pyogenes; conditions: Streptococcuss pyogenes ATCC 19615
# Excerpt: as §1, §2, §3
# E. faecalis B3/101 (VRE) = assay: Antibacterial MIC/MBC (broth microdilution); assay type: cell-based, Enterococcus faecalis; conditions: E. faecalis B3/101 (VRE)
# Excerpt: as §1, §2, §3
# [5] = system: Enterococcuss faecalis ATCC 29212; assay: Antibacterial MIC/MBC (broth microdilution); assay type: cell-based, Enterococcus faecalis; conditions: Enterococcuss faecalis ATCC 29212
# Excerpt: as §1, §2, §3
# [6] = system: Klebsiella pneumoniae ATCC 13883; assay: Antibacterial MIC/MBC (broth microdilution); assay type: cell-based; conditions: Klebsiella pneumoniae ATCC 13883
# Excerpt: as §1, §2, §3
# [7] = system: Listonella anguilarum ATCC 1924; assay: Antibacterial MIC/MBC (broth microdilution); assay type: cell-based; conditions: Listonella anguilarum ATCC 1924
# Excerpt: as §1, §2, §3
# [8] = system: Staphylococcus aureus ATCC 29213; assay: Antibacterial MIC/MBC (broth microdilution); assay type: cell-based
# Excerpt: as §1, §2, §3
# [9] = system: Yersinia ruckeri ATCC 29473; assay: Antibacterial MIC/MBC (broth microdilution); assay type: cell-based
# Excerpt: as §1, §2, §3
# [10] = system: Pseudomonas aeruginosa ATCC 27853; assay: Antibacterial MIC/MBC (broth microdilution); assay type: cell-based; conditions: Pseudomonas aeruginosa ATCC 27853
# Excerpt: as §1, §2, §3
# [11] = system: Salmonella enterica serovar Typhimurium CECT 443; assay: Antibacterial MIC/MBC (broth microdilution); assay type: cell-based
# Excerpt: as §1, §2, §3
# [12] = system: Campylobacter jejuni ATCC 33560; assay: Antibacterial MIC/MBC (broth microdilution); assay type: cell-based; conditions: Campylobacter jejuni ATCC 33560
# Excerpt: as §1, §2, §3
# [13] = system: Acinetobacter baumannii ATCC 19606; assay: Antibacterial MIC/MBC (broth microdilution); assay type: cell-based; conditions: Acinetobacter baumannii ATCC 19606
# Excerpt: as §1, §2, §3
# [14] = system: Tenacibaculum maritimum ATCC 43397; assay: Antibacterial disk diffusion; assay type: cell-based; conditions: Tenacibaculum maritimum ATCC 43397, footnote *
# Excerpt: as §1, §2, §3
# E. coli SA/2 (ESBL) = assay: Antibacterial MIC/MBC (broth microdilution); assay type: cell-based, Escherichia coli; conditions: E. coli SA/2 (ESBL)
# Excerpt: as §1, §2, §3
# [15] = system: E. coli 2252 (COL-resistant); assay: Antibacterial MIC/MBC (broth microdilution); assay type: cell-based, Escherichia coli; conditions: E. coli 2252 (COL-resistant)
# Excerpt: as §1, §2, §3
compound,measurement,setting,value
colistin,MIC,[1],1 µg/mL
same,reduction in SYTO 9/PI ratio vs untreated control,E. coli ATCC 25922 [2]; 1 μg/mL,only a significant reduction at 1 h
same,reduction in SYTO 9/PI ratio vs untreated control,E. coli ATCC 25922 [2]; 8 μg/mL,statistically significant
same,metabolic activity (MTT) vs untreated control,E. coli ATCC 25922 [3]; 1 μg/mL,only a significant reduction at 1 h
same,metabolic activity (MTT) vs untreated control,E. coli ATCC 25922 [3]; 8 μg/mL,significant reduction of metabolic activity at all time points
"C[C@H](CCC(=O)NCCc1nc2ccccc2[nH]1)[C@H]1CC[C@H]2[C@@H]3CC[C@@H]4C[C@H](O)CC[C@]4(C)[C@H]3C[C@H](O)[C@]12C [Compound 7, (R)—N-(2-(1H-benzo[d]imidazol-2-yl)ethyl)-4-((3R,5R,8R,9S,10S,12S,13R,14S,17R)-3,12-dihydroxy-10,13-dimethylhexadecahydro-1H-cyclopenta[a]phenanthren-17-yl) pentanamide]",MBC,P. aeruginosa 33b (PDR),>64 µg/mL
same,MIC,P. aeruginosa 33b (PDR),>64 µg/mL
same,MBC,C. jejuni 4433,>64 µg/mL
same,MIC,C. jejuni 4433,>64 µg/mL
same,MBC,C. jejuni P5/4,>64 µg/mL
same,MIC,C. jejuni P5/4,>64 µg/mL
same,MBC,C. jejuni 4432,>64 µg/mL
same,MIC,C. jejuni 4432,>64 µg/mL
same,MBC,C. jejuni 4448,>64 µg/mL
same,MIC,C. jejuni 4448,>64 µg/mL
same,MBC,S. aureus 66/1 (MRSA),>64 µg/mL
same,MIC,S. aureus 66/1 (MRSA),16 µg/mL
same,MBC,[4],>64 µg/mL
same,MIC,[4],>64 µg/mL
same,MBC,E. faecalis B3/101 (VRE),>64 µg/mL
same,MIC,E. faecalis B3/101 (VRE),>64 µg/mL
same,MBC,[5],>64 µg/mL
same,MIC,[5],>64 µg/mL
same,MBC,[6],>64 µg/mL
same,MIC,[6],>64 µg/mL
same,MBC,[7],>64 µg/mL
same,MIC,[7],>64 µg/mL
same,MBC,[8],>64 µg/mL
same,MIC,[8],8 µg/mL
same,MBC,[1],>64 µg/mL
same,MIC,[1],>64 µg/mL
same,MBC,[9],>64 µg/mL
same,MIC,[9],>64 µg/mL
same,MBC,[10],>64 µg/mL
same,MIC,[10],>64 µg/mL
same,MBC,[11],>64 µg/mL
same,MIC,[11],>64 µg/mL
same,MBC,[12],>64 µg/mL
same,MIC,[12],>64 µg/mL
same,MBC,[13],>64 µg/mL
same,MIC,[13],>64 µg/mL
same,Inhibition zone diameter (disk diffusion),[14],9 mm
same,MBC,E. coli SA/2 (ESBL),>64 µg/mL
same,MIC,E. coli SA/2 (ESBL),>64 µg/mL
same,MBC,[15],>64 µg/mL
same,MIC,[15],>64 µg/mL
